Assay results reported in patent publication US20250154198A1, “PEPTIDE INHIBITORS OF INTERLEUKIN-23 RECEPTOR” (Zealand Pharma A/S, priority 2021, published 2025).
*1 amine or outer side, *2 acyl side, *3 side chain or, on linkers, in order; H or OH if unused. Where a SMILES comes first, the peptide text is derived from it. Bridges are numbered along the chain shown (N, C = ends). [ ]: non-standard residue; d: D form. αMeAla(3-pyridyl) = C[C@](N)(Cc1cccnc1)C(=O)O; Trp(1-Me) = Cn1cc(C[C@H](N)C(=O)O)c2ccccc21; Phe(3,4-Me2) = Cc1ccc(C[C@H](N)C(=O)O)cc1C; Phe(4-Cl) = N[C@@H](Cc1ccc(Cl)cc1)C(=O)O; αMeW = C[C@](N)(Cc1c[nH]c2ccccc12)C(=O)O; 2Nal = N[C@@H](Cc1ccc2ccccc2c1)C(=O)O; AEF = NCCOc1ccc(C[C@H](N)C(=O)O)cc1; X1 = O=C(Cc1ccc(CN[*:1])cc1)[*:2]; αMeL = CC(C)C[C@](C)(N)C(=O)O; CH2COCH2 = O=C(C[*:1])C[*:2]; αMeV = CC(C)[C@](C)(N)C(=O)O; Dab = NCC[C@H](N)C(=O)O

Key:
[1] = Peptide stability in simulated gastric fluid (SGF); format: in vitro ADME; conditions: pig, Table 3-3, porcine pepsin, pH 1.2, 37° C., 10 μM; for remaining at 1 h, 10 μM: read-out: SGF (% remaining 1 h); for remaining at 4 h, 10 μM: read-out: SGF (% remaining 4 h)
Method: Determination of Peptide Stability in Simulated Gastric Fluid (SGF) and Simulated Intestinal Fluid (SIF)
SGF was prepared by dissolving sodium chloride (0.2 g) in 50 mL of water. A volume of 0.7 mL of 10 M HCl was added to adjust the pH of the solution to 1.2 and the volume made up to 100 mL with water. […] SIF was prepared by dissolving monobasic potassium phosphate (0.68 g) in 50 mL of water and adjusting the pH to 6.8 with 1 M NaOH. The volume was subsequently made up to 100 mL with water. 200 mg porcine pancreatin (P1625, Sigma Aldrich) was gently dissolved into 20 mL preheated (37° C.) solution (10 g/L) immediately prior to the incubation.
The incubation was performed at 37° C. with gentle shaking. […] After the last timepoint, the sampling plate was mixed for 10 min on a shaking table and centrifuged 10 min at 2200 g. 70 μL resulting supernatant was diluted with 150 μL water, mixed and centrifugated before analysis by liquid chromatography high resolution mass spectrometry. […] Percent remaining at each timepoint was calculated relative to timepoint zero based on absolute peak areas.

[2] = Peptide stability in simulated intestinal fluid (SIF); format: in vitro ADME; conditions: pig, Table 3-2, porcine pancreatin, pH 6.8, 37° C., 10 μM; for remaining at 1 h, 10 μM: read-out: SIF (% remaining 1 h); for remaining at 4 h, 10 μM: read-out: SIF (% remaining 4 h)
In short: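 Peptides incubated at 37°C with gentle shaking in SGF (NaCl, HCl, pH 1.2) or SIF (phosphate pH 6.8 with 10 g/L porcine pancreatin). Samples analysed by LC-HRMS; percent remaining at each timepoint calculated from absolute peak areas relative to time zero.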

[3] = simulated gastric fluid (SGF) with porcine pepsin
[4] = simulated intestinal fluid (SIF) with porcine pancreatin

CC(=O)N[C@@H](CC(=O)O)C(=O)N[C@H]1CCC(=O)NCCCC[C@@H](C(=O)N[C@@H](CCC(=O)O)C(=O)N[C@@H](CC(N)=O)C(=O)NCC(N)=O)NC(=O)[C@](C)(CC(C)C)NC(=O)[C@H](Cc2ccc3ccccc3c2)NC(=O)[C@H](Cc2c[nH]c3ccccc23)NC(=O)[C@@H]2CSCC(=O)CSC[C@H](NC(=O)[C@H](CO)NC1=O)C(=O)N[C@@H](Cc1c[nH]c3ccccc13)C(=O)N[C@@H](CCC(N)=O)C(=O)N2 [Compound 58, [Ac]-DE(1c)SC(2a)WQC(2a)W[2-Nal][2-Me-Leu]K(1c)ENG-[NH2]] (Ac-DESCWQCW[2Nal][αMeL]KENG-NH2; lactam 2-11; linker 4-7 via CH2COCH2)
remaining at 1 h, 10 μM [1, 3]: 61%
remaining at 4 h, 10 μM [1, 3]: 8%
remaining at 1 h, 10 μM [2, 4]: 80%
remaining at 4 h, 10 μM [2, 4]: 45%

CC(=O)N[C@H]1CCCCNC(=O)CC[C@@H](C(=O)N[C@@H](CCCNC(=N)N)C(N)=O)NC(=O)[C@H](CC(C)C)NC(=O)[C@H](Cc2ccc3ccccc3c2)NC(=O)[C@H](Cc2c[nH]c3ccccc23)NC(=O)[C@@H]2CSCC(=O)CSC[C@H](NC(=O)[C@H](CO)NC1=O)C(=O)N[C@@H](Cc1cn(C)c3ccccc13)C(=O)N[C@@H](CCC(N)=O)C(=O)N2 [Compound 27, [Ac]-K(1c)SC(2a)[1-Me-Trp]QC(2a)W[2-Nal]LE(1c)R-[NH2]] (Ac-KSC[Trp(1-Me)]QCW[2Nal]LER-NH2; lactam 1-10; linker 3-6 via CH2COCH2)
remaining at 1 h, 10 μM [1, 3]: 0%
remaining at 4 h, 10 μM [1, 3]: 0%
remaining at 1 h, 10 μM [2, 4]: 0%
remaining at 4 h, 10 μM [2, 4]: 0%

CC[C@H](C)[C@@H]1NC(=O)Cc2ccc(cc2)CNC(=O)CC[C@@H](C(=O)N[C@@H](CCN)C(=O)N[C@@](C)(Cc2cccnc2)C(N)=O)NC(=O)[C@](C)(C(C)C)NC(=O)[C@H](Cc2ccc(C)c(C)c2)NC(=O)[C@H](Cc2ccc(OCCN)cc2)NC(=O)[C@@H]2CCNC(=O)CC[C@H](NC1=O)C(=O)N[C@@H](Cc1c[nH]c3ccccc13)C(=O)N[C@@H](CCC(N)=O)C(=O)N2 [Compound 165, [4-Aminomethyl-phenylacetyl](1c)*IE(2c)WQ[Dab](2c)[Y(2-aminoethoxy)][F(3,4-Me)][2-Me-Val]E(1c)[Dab][2-Me-3-(3-Pyridyl)-Ala]-[NH2]] ([X1]IEWQ[Dab][AEF][Phe(3,4-Me2)][αMeV]E[Dab][αMeAla(3-pyridyl)]-NH2; lactam 3-6, N-10)
remaining at 4 h, 10 μM [1, 3]: 109%
remaining at 4 h, 10 μM [2, 4]: 109%

CC(=O)N[C@@H](CC(=O)O)C(=O)N[C@H]1CCC(=O)NCCCC[C@@H](C(=O)N[C@@H](CCCNC(=N)N)C(N)=O)NC(=O)[C@](C)(CC(C)C)NC(=O)[C@H](Cc2ccc3ccccc3c2)NC(=O)[C@H](Cc2c[nH]c3ccccc23)NC(=O)[C@@H]2CSCC(=O)CSC[C@H](NC(=O)[C@H]([C@@H](C)O)NC1=O)C(=O)N[C@@H](Cc1c[nH]c3ccccc13)C(=O)N[C@@H](CCC(N)=O)C(=O)N2 [Compound 57, [Ac]-DE(1c)TC(2a)WQC(2a)W[2-Nal][2-Me-Leu]K(1c)R-[NH2]] (Ac-DETCWQCW[2Nal][αMeL]KR-NH2; lactam 2-11; linker 4-7 via CH2COCH2)
remaining at 1 h, 10 μM [1, 3]: 21%
remaining at 4 h, 10 μM [1, 3]: 1%
remaining at 1 h, 10 μM [2, 4]: 7%
remaining at 4 h, 10 μM [2, 4]: 0%

CC(C)C[C@]1(C)NC(=O)[C@H](Cc2c[nH]c3ccccc23)NC(=O)[C@H](Cc2c[nH]c3ccccc23)NC(=O)[C@@H]2CSCC(=O)CSC[C@H](NC(=O)[C@H](CO)NC(=O)[C@@H](NC(=O)[C@@H](N)CC(=O)O)CSCC(=O)CSC[C@@H](C(=O)N[C@@H](CCCNC(=N)N)C(N)=O)NC1=O)C(=O)N[C@@H](Cc1c[nH]c3ccccc13)C(=O)N[C@@H](CCC(N)=O)C(=O)N2 [Compound 1, H-DC(1a)SC(2a)WQC(2a)WW[2-Me-Leu]C(1a)R-[NH2]]
remaining at 1 h, 10 μM [1]: 86%
remaining at 4 h, 10 μM [1]: 68%
remaining at 1 h, 10 μM [2]: 0%
remaining at 4 h, 10 μM [2]: 0%

CC[C@H](C)[C@@H]1NC(=O)Cc2ccc(cc2)CNC(=O)CC[C@@H](C(=O)N[C@@H](CCN)C(=O)N[C@@](C)(Cc2cccnc2)C(N)=O)NC(=O)[C@](C)(C(C)C)NC(=O)[C@H](Cc2ccc(C)c(C)c2)NC(=O)[C@H](Cc2ccc(Cl)cc2)NC(=O)[C@@H]2CCNC(=O)CC[C@H](NC1=O)C(=O)N[C@@H](Cc1c[nH]c3ccccc13)C(=O)N[C@@H](CCC(N)=O)C(=O)N2 [Compound 171, [4-Aminomethyl-phenylacetyl](1c)*IE(2c)WQ[Dab](2c)[F(4-Cl)][F(3,4-Me)][2-Me-Val]E(1c)[Dab][2-Me-3-(3-Pyridyl)-Ala]-[NH2]] ([X1]IEWQ[Dab][Phe(4-Cl)][Phe(3,4-Me2)][αMeV]E[Dab][αMeAla(3-pyridyl)]-NH2; lactam 3-6, N-10)
remaining at 4 h, 10 μM [1, 3]: 75%
remaining at 4 h, 10 μM [2, 4]: 68%

CC[C@H](C)[C@@H]1NC(=O)Cc2ccc(cc2)CNC(=O)CC[C@@H](C(=O)N[C@@H](CCN)C(=O)N[C@@](C)(Cc2cccnc2)C(N)=O)NC(=O)[C@](C)(C(C)C)NC(=O)[C@H](Cc2ccc(C)c(C)c2)NC(=O)[C@](C)(Cc2c[nH]c3ccccc23)NC(=O)[C@@H]2CCNC(=O)CC[C@H](NC1=O)C(=O)N[C@@H](Cc1c[nH]c3ccccc13)C(=O)N[C@@H](CCC(N)=O)C(=O)N2 [Compound 172, [4-Aminomethyl-phenylacetyl](1c)*IE(2c)WQ[Dab](2c)[alpha-Me-Trp][F(3,4-Me)][2-Me-Val]E(1c)[Dab][2-Me-3-(3-Pyridyl)-Ala]-[NH2]] ([X1]IEWQ[Dab][αMeW][Phe(3,4-Me2)][αMeV]E[Dab][αMeAla(3-pyridyl)]-NH2; lactam 3-6, N-10)
remaining at 4 h, 10 μM [1, 3]: 99%
remaining at 4 h, 10 μM [2, 4]: 70%

CC(=O)N[C@H]1CCSC[C@@H](C(=O)N[C@@H](Cc2ccc(OCCN)cc2)C(=O)N[C@@H](Cc2c[nH]c3ccccc23)C(=O)N[C@@](C)(CCCCN)C(=O)N[C@@H](CCC(=O)O)C(=O)N[C@@H](CC(N)=O)C(=O)NCC(N)=O)NC(=O)[C@H](CCC(N)=O)NC(=O)[C@H](Cc2c[nH]c3ccccc23)NC(=O)[C@H]([C@@H](C)O)NC(=O)[C@H](CCC(N)=O)NC1=O [Compound C, [Ac]-[Abu](16i)QTWQC(16i)[Y(2-aminoethoxy)]W[2-Me-Lys]ENG-[NH2], reference compound]
remaining at 1 h, 10 μM [1, 3]: 100%
remaining at 1 h, 10 μM [2, 4]: 92%
remaining at 4 h, 10 μM [2, 4]: 76%

CC(C)C[C@]1(C)NC(=O)[C@H](Cc2ccc3ccccc3c2)NC(=O)[C@H](Cc2ccccc2)NC(=O)[C@@H]2CCNC(=O)CC[C@H](NC(=O)[C@H](CO)NC(=O)Cc3ccc(cc3)CNC(=O)CC[C@@H](C(=O)N[C@@H](CCN)C(N)=O)NC1=O)C(=O)N[C@@H](Cc1c[nH]c3ccccc13)C(=O)N[C@@H](CCC(N)=O)C(=O)N2 [Compound 130, [4-Aminomethyl-phenylacetyl](1c)*SE(2c)WQ[Dab](2c)F[2-Nal][2-Me-Leu]E(1c)[Dab]-[NH2]] ([X1]SEWQ[Dab]F[2Nal][αMeL]E[Dab]-NH2; lactam 3-6, N-10)
remaining at 1 h, 10 μM [1, 3]: 59%
remaining at 4 h, 10 μM [1, 3]: 14%
remaining at 1 h, 10 μM [2, 4]: 1%
remaining at 4 h, 10 μM [2, 4]: 0%
